Source: ChEMBL document CHEMBL1151123, “Isolation of a New Indole Alkaloid, Pendolmycin, from Nocardiopsis” (J Nat Prod, 1988)
Converted amounts (≈) assume the structure as drawn. The source made the active and inactive calls. The rule behind the calls is not given here.

Key:
[1] = test system: Bacillus cereus; test: Antibacterial activity against Bacillus cereus; format: functional
[2] = test system: Corynebacterium bovis; test: Antibacterial activity against Corynebacterium bovis; format: functional
[3] = test system: Mycolicibacterium smegmatis; test: Antibacterial activity against Mycobacterium smegmatis; format: functional
[4] = test system: Klebsiella pneumoniae; test: Antibacterial activity against Klebsiella pneumoniae; format: functional
[5] = target: Epidermal growth factor receptor (Homo sapiens) (UniProt P00533); test: Inhibition of EGF binding to EGFR in human A431 cells; format: cell-based; conditions: A-431
[6] = test system: A-431; test: Inhibition of phosphatidylinositol turnover in EGF-stimulated human A431 cells by liquid scintillation counting; format: functional, cell-based
[7] = test system: Zone of skin; test: Toxicity in human skin assessed as erythema; format: tissue-based
[8] = test system: Staphylococcus aureus; test: Antibacterial activity against Staphylococcus aureus; format: functional
[9] = test system: Micrococcus luteus; test: Antibacterial activity against Micrococcus luteus; format: functional
[10] = test system: Bacillus anthracis; test: Antibacterial activity against Bacillus anthracis; format: functional
[11] = test system: Bacillus subtilis; test: Antibacterial activity against Bacillus subtilis; format: functional

Chain of Epidermal growth factor receptor (Homo sapiens) (P00533 whole entry): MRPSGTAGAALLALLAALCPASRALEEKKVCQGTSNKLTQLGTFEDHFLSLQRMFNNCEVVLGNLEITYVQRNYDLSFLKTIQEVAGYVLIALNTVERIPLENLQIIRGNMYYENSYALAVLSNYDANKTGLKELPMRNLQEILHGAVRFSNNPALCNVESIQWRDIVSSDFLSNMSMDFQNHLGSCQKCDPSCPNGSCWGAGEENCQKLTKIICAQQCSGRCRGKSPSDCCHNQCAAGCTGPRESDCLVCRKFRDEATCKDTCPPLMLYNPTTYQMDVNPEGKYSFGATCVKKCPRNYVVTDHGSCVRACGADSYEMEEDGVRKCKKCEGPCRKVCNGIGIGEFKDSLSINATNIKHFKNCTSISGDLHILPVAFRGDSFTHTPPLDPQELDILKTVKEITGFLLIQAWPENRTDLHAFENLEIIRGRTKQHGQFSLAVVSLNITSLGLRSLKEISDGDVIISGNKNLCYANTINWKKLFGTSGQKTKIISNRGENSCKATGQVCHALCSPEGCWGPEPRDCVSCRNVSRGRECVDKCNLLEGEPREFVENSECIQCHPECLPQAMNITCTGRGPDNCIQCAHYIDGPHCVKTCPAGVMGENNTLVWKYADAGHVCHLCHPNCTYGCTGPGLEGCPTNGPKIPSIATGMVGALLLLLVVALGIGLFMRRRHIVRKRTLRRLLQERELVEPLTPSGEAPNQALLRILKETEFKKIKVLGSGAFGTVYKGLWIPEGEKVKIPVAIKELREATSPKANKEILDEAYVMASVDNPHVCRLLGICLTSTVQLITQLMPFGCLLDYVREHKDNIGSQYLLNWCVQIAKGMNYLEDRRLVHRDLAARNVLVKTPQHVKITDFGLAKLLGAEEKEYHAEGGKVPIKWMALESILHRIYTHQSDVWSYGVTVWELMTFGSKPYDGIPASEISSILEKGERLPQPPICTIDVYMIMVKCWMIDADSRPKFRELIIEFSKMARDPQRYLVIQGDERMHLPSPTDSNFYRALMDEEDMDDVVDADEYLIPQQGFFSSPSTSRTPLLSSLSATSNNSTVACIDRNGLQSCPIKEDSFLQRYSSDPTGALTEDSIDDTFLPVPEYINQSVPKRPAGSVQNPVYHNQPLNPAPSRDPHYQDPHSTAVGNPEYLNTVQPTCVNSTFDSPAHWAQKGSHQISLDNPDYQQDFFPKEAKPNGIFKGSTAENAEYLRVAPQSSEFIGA

SMILES	MIC [1] [µg/mL]	MIC [2] [µg/mL]	MIC [3] [µg/mL]	MIC [4] [µg/mL]	Activity [5]	IC50 [6] [µg/mL]	Activity [7]	MIC [8] [µg/mL]	MIC [9] [µg/mL]	MIC [10] [µg/mL]	MIC [11] [µg/mL]
C=CC(C)(C)c1ccc2c3c(c[nH]c13)C[C@@H](CO)NC(=O)[C@H](C(C)C)N2C [PENDOLMYCIN]	50 (≈ 135 µM)	50 (≈ 135 µM)	50 (≈ 135 µM)	100 (≈ 271 µM)	inactive	0.001 (≈ 0.00271 µM)	Toxic	25 (≈ 67.7 µM)	25 (≈ 67.7 µM)	50 (≈ 135 µM)	50 (≈ 135 µM)
C=C[C@]1(C)CC[C@@](C)(C(C)C)c2cc3c4c(c[nH]c4c21)C[C@@H](CO)NC(=O)[C@H](C(C)C)N3C					inactive						
